The subject of one experiment is Erk phosphorylation. As to the kind of experiment: Growth factor (bFGF) stimulated Erk phosphorylation in NIH 3T3 cells. To be noted: Mus musculus, NIH3T3, NIH 3T3 cells, 3 ng/ml bFGF.
The next experiment addresses T1, FGFR1 IIIc (Homo sapiens, UniProt P11362).
T1 construct: host or cells: Cos-1
Kind of experiment: Cell based inhibition of transiently expressed FGFR1 IIIc phosphorylation (Cos-1 cells). Particulars: Cos-1 cells, phospho-FGFR1; upper bound of bin; read-out: IC50. On the procedure: This assay is designed to detect inhibitors of transiently expressed FGFR1 phosphorylation by antibody staining of fixed cells detected using ArrayScan technology.
To undertake the assay, Cos-1 cells were harvested at 90-95% confluence for cell transfection. For each 96-well plate, 24 ul Lipofectamine 2000 was added to 809 ul OptiMEM and incubated at room temperature for 5 minutes. […] Equal volumes of DNA and Lipofectamine 2000 were combined (DNA: Lipid=1:1.2 ratio) and incubated at room temperature for 20 minutes.
The harvested Cos-1 cells are counted using a coulter counter and diluted further with 1% FCS/DMEM to 2.5×10^5 cells/ml. For each 96-well, 8.33 ml cells were required. […] Media was removed from the wells using vacuum aspiration; cells were fixed by adding 50μl of 100% methanol to each well and incubated at room temperature for 20 minutes.
The plates were read on an Arrayscan (Cellomics).

Another experiment concerns the target FGFR1 kinase (Homo sapiens, UniProt P11362). Kind of experiment: Kinase assay (using Caliper technology). Particulars: FGFR1 kinase, Caliper; upper bound of bin; read-out: IC50. Format: biochemical. The essentials: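 Human FGFR1 kinase activity measured with a 13-mer fluorescently tagged FGFR1-specific peptide substrate; compounds serially diluted in 5% (v/v) DMSO. Reactions ran 1.5 h at room temperature, stopped with EDTA-containing HEPES pH 7.5 buffer. Phosphorylated and unphosphorylated peptide separated by microfluidic mobility shift.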

In the next experiment the target is T2, human IGF1R (Homo sapiens, UniProt P08069).
T2 construct: expressed in transfected cells; host or cells: R+ cells (R- mouse fibroblasts transfected with human IGF1R)
T2 sequence (P08069 31-1367): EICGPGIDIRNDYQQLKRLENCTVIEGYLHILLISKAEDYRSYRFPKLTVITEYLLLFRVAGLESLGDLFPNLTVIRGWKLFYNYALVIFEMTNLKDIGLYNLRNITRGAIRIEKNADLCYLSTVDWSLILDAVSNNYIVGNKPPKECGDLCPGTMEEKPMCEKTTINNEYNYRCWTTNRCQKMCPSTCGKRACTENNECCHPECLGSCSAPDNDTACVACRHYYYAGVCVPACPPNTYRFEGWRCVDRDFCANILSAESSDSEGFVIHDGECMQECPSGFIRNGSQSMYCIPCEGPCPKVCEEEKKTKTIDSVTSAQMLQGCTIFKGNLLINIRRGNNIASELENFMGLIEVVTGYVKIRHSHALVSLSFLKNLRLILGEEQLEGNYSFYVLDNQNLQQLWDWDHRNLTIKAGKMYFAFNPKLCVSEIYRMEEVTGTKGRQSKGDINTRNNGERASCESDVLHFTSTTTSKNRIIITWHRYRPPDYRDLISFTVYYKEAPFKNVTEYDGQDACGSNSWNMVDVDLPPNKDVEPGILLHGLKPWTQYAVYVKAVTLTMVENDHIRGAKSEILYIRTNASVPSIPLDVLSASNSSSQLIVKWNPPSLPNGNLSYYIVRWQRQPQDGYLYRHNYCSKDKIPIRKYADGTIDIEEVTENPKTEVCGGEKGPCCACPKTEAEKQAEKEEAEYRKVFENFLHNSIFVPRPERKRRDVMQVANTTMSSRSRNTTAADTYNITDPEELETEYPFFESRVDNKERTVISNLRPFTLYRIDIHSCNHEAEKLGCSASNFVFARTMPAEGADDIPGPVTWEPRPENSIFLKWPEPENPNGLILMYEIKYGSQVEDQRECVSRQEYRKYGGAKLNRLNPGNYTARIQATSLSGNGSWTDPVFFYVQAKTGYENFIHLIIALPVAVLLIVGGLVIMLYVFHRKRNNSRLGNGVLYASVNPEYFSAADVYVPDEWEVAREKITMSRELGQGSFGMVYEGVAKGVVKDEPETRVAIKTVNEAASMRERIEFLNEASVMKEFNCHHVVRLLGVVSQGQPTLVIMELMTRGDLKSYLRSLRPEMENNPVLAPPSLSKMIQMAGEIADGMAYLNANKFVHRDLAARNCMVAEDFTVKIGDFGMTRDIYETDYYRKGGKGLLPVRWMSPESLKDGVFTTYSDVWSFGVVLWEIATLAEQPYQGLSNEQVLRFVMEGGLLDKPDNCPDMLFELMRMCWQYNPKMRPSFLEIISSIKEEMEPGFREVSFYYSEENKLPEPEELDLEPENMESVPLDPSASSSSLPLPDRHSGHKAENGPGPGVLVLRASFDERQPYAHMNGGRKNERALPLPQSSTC
Kind of experiment: Inhibition of insulin-like growth factor-1 receptor phosphorylation in R+ cells. Particulars: 30 nM IGF1, read-out: IGF cell class. It is filed as cell-based.

Counter-ions that a name gives are not always drawn. Bounds are passed on as bounds.

These results are taken from patent publication US20080004302A1, “Novel Compounds” (ASTRAZENECA AB, priority 2006, published 2008).

T1 sequence (P11362 22-822): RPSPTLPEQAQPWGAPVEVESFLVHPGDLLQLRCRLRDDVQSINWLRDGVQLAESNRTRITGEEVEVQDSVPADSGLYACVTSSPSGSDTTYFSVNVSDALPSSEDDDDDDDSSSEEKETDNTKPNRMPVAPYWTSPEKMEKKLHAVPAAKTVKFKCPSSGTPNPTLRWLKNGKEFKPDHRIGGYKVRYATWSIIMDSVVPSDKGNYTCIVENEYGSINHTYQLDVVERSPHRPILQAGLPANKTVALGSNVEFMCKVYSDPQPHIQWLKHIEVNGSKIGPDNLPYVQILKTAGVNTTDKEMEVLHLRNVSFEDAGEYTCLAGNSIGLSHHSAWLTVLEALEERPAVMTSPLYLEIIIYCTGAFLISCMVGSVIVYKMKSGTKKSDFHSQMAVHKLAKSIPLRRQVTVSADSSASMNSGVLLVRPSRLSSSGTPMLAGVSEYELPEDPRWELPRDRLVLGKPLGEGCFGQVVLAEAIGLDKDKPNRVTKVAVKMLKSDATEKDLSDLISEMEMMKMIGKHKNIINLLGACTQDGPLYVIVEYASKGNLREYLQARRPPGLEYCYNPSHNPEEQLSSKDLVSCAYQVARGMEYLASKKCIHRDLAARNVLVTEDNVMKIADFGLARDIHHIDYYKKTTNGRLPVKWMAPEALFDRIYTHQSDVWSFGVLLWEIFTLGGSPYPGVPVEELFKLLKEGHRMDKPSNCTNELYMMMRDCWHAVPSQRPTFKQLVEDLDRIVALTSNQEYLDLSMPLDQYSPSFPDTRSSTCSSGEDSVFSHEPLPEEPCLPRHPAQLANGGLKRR
Sequence of FGFR1 kinase (P11362 22-822): as above

Take `Cc1cc(CNc2nccc(Nc3cc(CCc4cccc(OCc5ccccc5)c4)n[nH]3)n2)on1` [Example 38, N-[(3-methyl1,2-oxazol-5-yl)methyl]-N′-[5-[2-(3-phenylmethoxyphenyl)ethyl]-2H-pyrazol-3-yl]pyrimidine-2,4-diamine]: the IC50 was less than 1 µM in the experiment on Erk phosphorylation (upper bound of bin), less than 10 µM at FGFR1 IIIc, less than 10 µM at FGFR1 kinase and 0.1 to 1 µM at human IGF1R.
As for `Cc1cc(CNc2nccc(Nc3cc(CCc4ccccc4OCc4ccccc4)[nH]n3)n2)on1` [Example 39, N-[(3-methyl1,2-oxazol-5-yl)methyl]-N′-[5-[2-(2-phenylmethoxyphenyl)ethyl]-1H-pyrazol-3-yl]pyrimidine-2,4-diamine hydrochloride], the IC50 in the experiment with Erk phosphorylation (upper bound of bin) is less than 1 µM; on FGFR1 IIIc it was less than 10 µM; on FGFR1 kinase it was less than 10 µM; at human IGF1R, more than 10 µM.
Turning to `COCCOc1cccc(CCc2cc(Nc3ccnc(NCc4cc(C)no4)n3)n[nH]2)c1` [Example 40, N′-[5-[2-[3-(2-methoxyethoxy)phenyl]ethyl]-2H-pyrazol-3-yl]-N-[(3-methyl1,2-oxazol-5-yl)methyl]pyrimidine-2,4-diamine], the IC50 was less than 1 µM with Erk phosphorylation (upper bound of bin), less than 10 µM at FGFR1 IIIc, less than 1 µM at FGFR1 kinase and 1 to 10 µM on human IGF1R.
With `Cc1cc(CNc2nccc(Nc3cc(CCc4cc(O)cc(O)c4)[nH]n3)n2)on1` [Example 43, 5-[2-[5-[[2-[(3-methyl1,2-oxazol-5-yl)methylamino]pyrimidin-4-yl]amino]-1H-pyrazol-3-yl]ethyl]benzene-1,3-diol], the IC50 in the experiment with Erk phosphorylation (upper bound of bin) was less than 1 µM; on FGFR1 IIIc, less than 10 µM; on FGFR1 kinase, less than 0.2 µM; on human IGF1R it was more than 10 µM.
The matching figures for `COc1ccc(CCc2cc(Nc3ccnc(NCc4cc(C)no4)n3)n[nH]2)c(C)c1` [Example 47, N′-[5-[2-(4-methoxy-2-methyl-phenyl)ethyl]-2H-pyrazol-3-yl]-N-[(3-methyl1,2-oxazol-5-yl)methyl]pyrimidine-2,4-diamine]: less than 1 µM, less than 1 µM, less than 1 µM and 1 to 10 µM.
Regarding `Cc1cc(CNc2nccc(Nc3cc(CCc4cccc(C#N)c4)[nH]n3)n2)on1` [Example 48, 3-[2-[5-[[2-[(3-methyl-1,2-oxazol-5-yl)methylamino]pyrimidin-4-yl]amino]-2H-pyrazol-3-yl]ethyl]benzonitrile], the IC50 with Erk phosphorylation (upper bound of bin) is less than 10 µM; at FGFR1 IIIc it was less than 10 µM; on FGFR1 kinase, less than 1 µM; on human IGF1R, more than 10 µM.
As to `Cc1cc(CNc2nccc(Nc3cc(CCc4cccc(OC(F)(F)F)c4)[nH]n3)n2)on1` [Example 51, N-[(3-methyl1,2-oxazol-5-yl)methyl]-N′-[5-[2-[3-(trifluoromethoxy)phenyl]ethyl]-1H-pyrazol-3-yl]pyrimidine-2,4-diamine], the IC50 with Erk phosphorylation (upper bound of bin) was less than 10 µM; at FGFR1 IIIc, less than 10 µM; at FGFR1 kinase it was less than 10 µM; on human IGF1R, more than 10 µM.
Turning to `Cc1cc(CNc2nccc(Nc3cc(CCc4cccc(Br)c4)[nH]n3)n2)on1` [Example 53, N′-[5-[2-(3-bromophenyl)ethyl]-1H-pyrazol-3-yl]-N-[(3-methyl1,2-oxazol-5-yl)methyl]pyrimidine-2,4-diamine hydrochloride], the IC50 with Erk phosphorylation was less than 0.2 µM; with Erk phosphorylation (upper bound of bin), less than 1 µM; on FGFR1 IIIc it was less than 1 µM; on FGFR1 kinase, less than 1 µM; on human IGF1R, more than 10 µM.
As for `Cc1cc(CNc2nccc(Nc3cc(CCc4ccc5c(c4)OCO5)[nH]n3)n2)on1` [Example 54, N′-[5-(2-benzo [1,3]dioxol-5-ylethyl)-2H-pyrazol-3-yl]-N-[(3-methyl1,2-oxazol-5-yl)methyl]pyrimidine-2,4-diamine], the IC50 is less than 1 µM in the experiment with Erk phosphorylation (upper bound of bin), less than 1 µM on FGFR1 IIIc, less than 1 µM at FGFR1 kinase and 1 to 10 µM at human IGF1R.
`Cc1cc(CNc2nccc(Nc3cc(OCc4cccc(OS(C)(=O)=O)c4)[nH]n3)n2)on1` [Example 88, N-[(3-methyl1,2-oxazol-5-yl)methyl]-N′-[5-[(3-methylsulfonyloxyphenyl)methoxy]-2H-pyrazol-3-yl]pyrimidine-2,4-diamine]: the IC50 is less than 10 µM in the experiment on Erk phosphorylation (upper bound of bin), less than 10 µM at FGFR1 IIIc, less than 1 µM at FGFR1 kinase and more than 10 µM on human IGF1R.
`Cc1cc(CNc2nccc(Nc3cc(OCc4cccc(C(F)(F)F)c4)[nH]n3)n2)on1` [Example 95, N-[(3-methyl1,2-oxazol-5-yl)methyl]-N′-[5-[[3-(trifluoromethyl)phenyl]methoxy]-1H-pyrazol-3-yl]pyrimidine-2,4-diamine hydrochloride]: the IC50 with Erk phosphorylation (upper bound of bin) was less than 10 µM; at FGFR1 IIIc, less than 10 µM; on FGFR1 kinase it was less than 10 µM; at human IGF1R, more than 10 µM.
With `COc1cc(COc2cc(Nc3ccnc(NCc4cc(C)no4)n3)n[nH]2)ccc1F` [Example 100, N′-[5-[(4-fluoro-3-methoxy-phenyl)methoxy]-1H-pyrazol-3-yl]-N-[(3-methyl1,2-oxazol-5-yl)methyl]pyrimidine-2,4-diamine hydrochloride], the IC50 in the experiment with Erk phosphorylation (upper bound of bin) is less than 10 µM; on FGFR1 IIIc, less than 10 µM; on FGFR1 kinase it was less than 10 µM; at human IGF1R, 1 to 10 µM.
Take `Cc1cc(CNc2nccc(Nc3cc(-c4ccco4)[nH]n3)n2)on1` [Example 105, N′-[5-(2-furyl)-1H-pyrazol-3-yl]-N-[(3-methyl1,2-oxazol-5-yl)methyl]pyrimidine-2,4-diamine]: the IC50 with Erk phosphorylation (upper bound of bin) was less than 1 µM; at FGFR1 IIIc, less than 10 µM; on FGFR1 kinase it was less than 1 µM; on human IGF1R it was more than 10 µM.
As for `Cc1cc(CNc2nccc(Nc3cc(CCC4CCOC4)[nH]n3)n2)on1` (stereo not drawn) [Example 109, N-[(3-methyl1,2-oxazol-5-yl)methyl]-N′-[5-[2-(oxolan-3-yl)ethyl]-1H-pyrazol-3-yl]pyrimidine-2,4-diamine], the IC50 in the experiment with Erk phosphorylation (upper bound of bin) was less than 10 µM; at FGFR1 IIIc, less than 10 µM; on FGFR1 kinase it was less than 1 µM; at human IGF1R, more than 10 µM.
For `Cc1cc(CNc2nccc(Nc3cc(CCc4ccoc4)[nH]n3)n2)on1` [Example 110, N′-[5-[2-(3-furyl)ethyl]-1H-pyrazol-3-yl]-N-[(3-methyl1,2-oxazol-5-yl)methyl]pyrimidine-2,4-diamine], the IC50 was less than 1 µM with Erk phosphorylation (upper bound of bin), less than 1 µM on FGFR1 IIIc, less than 0.2 µM at FGFR1 kinase and 1 to 10 µM at human IGF1R.
With `c1cnc(-c2cc(CNc3nccc(Nc4cc(CCc5ccco5)[nH]n4)n3)on2)nc1` [Example 113, N′-[5-[2-(2-furyl)ethyl]-2H-pyrazol-3-yl]-N-[(3-pyrimidin-2-yl1,2-oxazol-5-yl)methyl]pyrimidine-2,4-diamine], the IC50 in the experiment on Erk phosphorylation (upper bound of bin) was less than 10 µM; on FGFR1 IIIc it was less than 10 µM; at FGFR1 kinase, less than 0.2 µM; at human IGF1R it was 1 to 10 µM.
In the case of `Cc1cc(CNc2nccc(Nc3cc(CCc4cc(C)nn4C)[nH]n3)n2)on1` [Example 118, N′-[5-[2-(2,5-dimethylpyrazol-3-yl)ethyl]-1H-pyrazol-3-yl]-N-[(3-methyl-1,2-oxazol-5-yl)methyl]pyrimidine-2,4-diamine], the IC50 is less than 30 µM in the experiment on Erk phosphorylation (upper bound of bin), less than 30 µM on FGFR1 IIIc, less than 1 µM at FGFR1 kinase and more than 10 µM at human IGF1R.
